Test results published in patent publication US7589232B2, “Alkynyl aryl carboxamides” (Laboratories Serono S.A., priority 2003, dated 2009).
Structures can show the parent of a compound that is named as a salt.

Experiments:
[1] = target: T1, PTP-H1 (Homo sapiens, UniProt P26045); assay: PTP Enzyme Assay (DiFMUP), PTP-H1; type: biochemical; conditions: 5 μM DiFMUP substrate; catalytic core of human recombinant PTP; triplicates; read-out: IC50 value in respect of PTP-H1
T1 construct: using the catalytic core of a human recombinant PTP as the enzyme
T1 sequence (P26045 646-901 limits assumed): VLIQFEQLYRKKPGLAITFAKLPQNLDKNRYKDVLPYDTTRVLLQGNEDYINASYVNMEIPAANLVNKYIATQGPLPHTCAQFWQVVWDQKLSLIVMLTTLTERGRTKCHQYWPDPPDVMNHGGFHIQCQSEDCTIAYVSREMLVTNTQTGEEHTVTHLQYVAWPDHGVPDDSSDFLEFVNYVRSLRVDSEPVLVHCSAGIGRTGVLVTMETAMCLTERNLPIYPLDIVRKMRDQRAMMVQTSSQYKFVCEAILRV
Procedure: (§1) The PTP Enzyme Assay aims at determining the extent of inhibition of PTPs, e.g. of PTP1B, SHP-1, SHP-2, GLEPP-1 or PTP-H1 in the presence of a test compound of formula (I) or (I′). The inhibition is illustrated by IC50 values which denote the concentration of test compound necessary to achieve an inhibition of 50% of said PTP's using the following concentration of the PTP substrate DiFMUP: • 5 μM DiFMUP for PTP1B and PTP-H1; • 20 μM DiFMUP for SHP-1 and SHP-2. • 30 μM DiFMUP for GLEPP-1. a) PTPs Cloning
(§2) The DiFMUP assay allows to follow the dephosphorylation of DiFMUP (6,8-DiFluoro-4-MethylUmbelliferyl Phosphate)—which is the PTP substrate—mediated by PTP into its stable hydrolysis product, i.e. DiFMU (6,8-difluoro-7-hydroxy coumarin). Due to its rather low pKa and its high quantum yield, DiFMU allows to measure both acidic and alkaline phosphatase activities with a great sensitivity.
(§3) Assays were performed in a 96 well plate format, using the catalytic core of a human recombinant PTP as the enzyme and 6,8-DiFluoro-4-MethylUmbelliferyl Phosphate (DiFMUP, Molecular Probes, D-6567) as a substrate. Compounds to be tested were dissolved in 100% DMSO at a concentration of 2 mM. Subsequent dilutions of the test compounds (to yield a concentration of 100, 30, 10, 3, 1, 0.3, 0.1, 0.03, 0.01, 0.001 μM) wore performed in 60% DMSO manually. 8 μl of diluted compound or vehicle (60% DMSO=control) was distributed to a black Costar 96 well plate. 42 μl of human recombinant PTP enzyme diluted in assay buffer (20 mM Tris HCl pH 7.5, 0.01% IGEPAL CA-630, 0.1 mM ethylenediaminetetracetic acid, 1 mM DL-Dithiothreitol) can be added to the dilutions of compound or vehicle (distributed to a black Costar 96 well plate), followed by 50 μl of DiFMUP diluted in the assay buffer. The reaction ran for 30 minutes at room temperature before reading the fluorescence intensity (integral or intensity) on a Perkin-Elmer Victor 2 spectrofluorimeter (excitation of 6,8-difluoro-7-hydroxy coumarin is at 355 nm, the emission at 460 nm, for 0.1 s). The percentage of inhibition is determined by measuring the relative fluorescence ion absence of a test compound (PTP inhibitor), i.e. with the solvent alone (5% DMSO). The IC50 values for inhibition were determined in triplicates.

[2] = target: T2, SHP-1 (Homo sapiens, UniProt P29350); assay: PTP Enzyme Assay (DiFMUP), SHP-1; type: biochemical; conditions: 20 μM DiFMUP substrate; catalytic core of human recombinant PTP; triplicates; read-out: IC50 value in respect of SHP-1
T2 construct: using the catalytic core of a human recombinant PTP as the enzyme
T2 sequence (P29350 244-515 limits assumed): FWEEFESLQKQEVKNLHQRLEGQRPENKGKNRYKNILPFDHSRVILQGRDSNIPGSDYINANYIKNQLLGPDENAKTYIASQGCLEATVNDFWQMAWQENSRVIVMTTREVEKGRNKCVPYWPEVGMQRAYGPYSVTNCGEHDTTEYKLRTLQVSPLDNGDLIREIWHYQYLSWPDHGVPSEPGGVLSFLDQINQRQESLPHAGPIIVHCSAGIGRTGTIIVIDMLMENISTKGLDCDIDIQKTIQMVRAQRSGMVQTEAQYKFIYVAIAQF
Procedure: as §1, §2, §3

[3] = target: T3, PTP1B (Homo sapiens, UniProt P18031); assay: PTP Enzyme Assay (DiFMUP), PTP1B; type: biochemical; conditions: 5 μM DiFMUP substrate; catalytic core of human recombinant PTP; triplicates; read-out: IC50 value in respect of PTP1B
T3 construct: using the catalytic core of a human recombinant PTP as the enzyme; made in house
T3 sequence (P18031 3-277 limits assumed): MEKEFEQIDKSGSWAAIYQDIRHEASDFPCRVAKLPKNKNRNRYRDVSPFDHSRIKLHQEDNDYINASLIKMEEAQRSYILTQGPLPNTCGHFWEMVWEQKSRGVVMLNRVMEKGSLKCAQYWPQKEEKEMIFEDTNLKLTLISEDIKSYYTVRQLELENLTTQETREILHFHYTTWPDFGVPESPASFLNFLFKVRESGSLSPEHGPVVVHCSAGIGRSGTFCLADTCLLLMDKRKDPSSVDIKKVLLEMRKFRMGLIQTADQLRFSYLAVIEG
Procedure: as §1
The cloning and expression of the catalytic domain e.g. of PTP1B, may be performed as described in J. Biol. Chem. 2000, 275(13), pp 9792-9796.
as §2, §3

[4] = tested on: db/db mice; assay: In vivo assay in db/db mice (postprandial glycemia); conditions: 4 hrs after drug administration, expressed as a percentage of control (vehicle, Group 1)
Procedure: The following assay aims at determining the anti-diabetic effect of the test compounds of formula (I) or (I′) in a model of postprandial glycemia in db/db mice, in vivo.
A total of 18 db/db mice (about 8-9 weeks; obtained from IFFACREDO, l'Arbreste, France) were fasted during 20 hours.
3 groups, each consisting of 6 animals were formed: • Group 1: The animals were administered (per os) a dose of 10 mL/kg of vehicle (control). • Group 2: The animals were administered (per os) a dose of 30 mg/kg of the test compound according to formula (I) solubilized in the vehicle. • Group 3: The animals were administered (per os) a dose of 100 mg/kg of the test compound according to formula (I) solubilized in the vehicle.
After oral administration of the compounds of formula (I) or (I′) solubilized or suspended in CarboxyMethylCellulose (0.5%), Tween 20 (0.25%) in water as vehicle, the animals had access to commercial food (D04, UAR, Villemoisson/Orge, France) ad libitum. The diabetic state of the mice was verified by determining the blood glucose level before fasting. Blood glucose and serum insulin levels were then determined 4 hrs after drug administration.
The determination of the blood glucose level was performed using a glucometer (Ascensia Dex^2, Bayer, ref 3956C).
The determination of the Insulin level was performed using an ELISA kit (Mercodia, ref 10-1149-10).
Changes in blood glucose and serum insulin of drug treated mice were expressed as a percentage of control (group 1: vehicle treated mice).

[5] = target: T4, SHP-2 (Homo sapiens, UniProt Q06124); assay: PTP Enzyme Assay (DiFMUP), SHP-2; type: biochemical; conditions: 20 μM DiFMUP substrate; catalytic core of human recombinant PTP; triplicates; read-out: IC50 value in respect of SHP-2
T4 construct: using the catalytic core of a human recombinant PTP as the enzyme
T4 sequence (Q06124 247-517 limits assumed): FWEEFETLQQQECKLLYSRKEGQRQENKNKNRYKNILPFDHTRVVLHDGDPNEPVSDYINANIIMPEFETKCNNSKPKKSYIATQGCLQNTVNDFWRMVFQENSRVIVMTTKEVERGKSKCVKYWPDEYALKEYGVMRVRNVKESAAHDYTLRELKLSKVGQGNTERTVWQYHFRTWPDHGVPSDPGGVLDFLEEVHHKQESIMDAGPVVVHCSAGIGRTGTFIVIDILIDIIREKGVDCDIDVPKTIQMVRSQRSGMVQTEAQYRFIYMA
Procedure: as §1, §2, §3

[6] = target: T5, GLEPP-1 (Homo sapiens, UniProt Q16827); assay: PTP Enzyme Assay (DiFMUP), GLEPP-1; type: biochemical; conditions: 30 μM DiFMUP substrate; catalytic core of human recombinant PTP; triplicates; read-out: IC50 value in respect of GLEPP-1
T5 construct: using the catalytic core of a human recombinant PTP as the enzyme
T5 sequence (Q16827 938-1195 limits assumed): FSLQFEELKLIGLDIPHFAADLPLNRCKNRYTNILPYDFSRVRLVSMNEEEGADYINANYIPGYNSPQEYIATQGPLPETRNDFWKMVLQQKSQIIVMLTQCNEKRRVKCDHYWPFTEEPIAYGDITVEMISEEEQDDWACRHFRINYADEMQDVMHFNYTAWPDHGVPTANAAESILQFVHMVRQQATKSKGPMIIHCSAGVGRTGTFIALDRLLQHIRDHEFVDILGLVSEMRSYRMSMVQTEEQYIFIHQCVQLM
Procedure: as §1, §2, §3

| Structure (SMILES) | IC50 [1] | IC50 [2] | IC50 [3] | Decrease in blood glucose ([4]; Group 2: 30 mg/kg per os) | Decrease in serum insulin ([4]; Group 2: 30 mg/kg per os) | Decrease in blood glucose ([4]; Group 3: 100 mg/kg per os) | Decrease in serum insulin ([4]; Group 3: 100 mg/kg per os) | IC50 [5] | IC50 [6] |
| --- | --- | --- | --- | --- | --- | --- | --- | --- | --- |
| CCCCCCCCC#Cc1ccc(CN(C(=O)CCC2CCCC2)c2ccc(O)c(C(=O)O)c2)cc1 [Example 2, 5-[(3-cyclopentylpropanoyl)(4-dec-1-ynylbenzyl)amino]-2-hydroxybenzoic acid. N-methyl-D-glucamine (i.e. 1-deoxy-1-(methylamino)glucitol) salt] | 3.37 µM | 1.2 µM | 0.49 µM | 28% | 84% | 58% | 88% | 0.49 µM | 0.61 µM |
| CCCCCCCCC#Cc1ccc(CN(Cc2ccc(OCC(=O)O)c(C(=O)O)c2)C(=O)/C=C/c2ccccc2)cc1 [Example 16, 2-(carboxymethoxy)-5-({(4-dec-1-ynylbenzyl)[(2E)-3-3-phenylprop-2-enoyl]amino}methyl)benzoic acid] | 5.7 µM | 1.6 µM | 0.29 µM |  |  |  |  | 1.4 µM | 0.21 µM |
| CCCCc1ccc(C#Cc2ccc(CN(C(=O)Cc3cccs3)c3ccc(F)c(C(=O)O)c3)cc2)cc1 [Example 68, 5-[{4-[(4-butylphenyl)ethynyl]benzyl}(2-thienylacetyl)amino]-2-fluorobenzoic acid, N-methyl-D-glucamine (i.e. 1-deoxy-1-(methylamino)glucitol) salt] | 9.9 µM | 3.7 µM | 0.49 µM |  |  |  |  | 1.9 µM | 1.58 µM |
| CCCCc1ccc(C#Cc2ccc(CN(C(=O)C(C)(C)C)c3ccc(C(=O)O)c(O)c3)cc2)cc1 [Example 76, 4-[{4-[(4-butylphenyl)ethynyl]benzyl}(2,2-dimethylpropanoyl)amino]-2-hydroxybenzoic acid, N-methyl-D-glucamine (i.e. 1-deoxy-1-(methylamino)glucitol) salt] | 6.3 µM | 3 µM | 0.97 µM |  |  |  |  | 2.2 µM | 0.99 µM |
